Assay results taken from the NIST ThermoML archive (doi:10.1021/je100287g).
± gives the expanded uncertainty stated by the source.

Assay: cn = amount concentration of the nth substance listed, in mol/dm3
Conditions: 101 kPa, Liquid, digital conductivity meter (CM-180, Elico India)

Nc1ccc(S(=O)(=O)[N-]c2nccs2)cc1.[Na+] [sodium ((4-aminophenyl)sulfonyl)(thiazol-2-yl)amide] + O
electrical conductivity [S/m]
Conditions | c1 = 0.001 | c1 = 0.002 | c1 = 0.004 | c1 = 0.006 | c1 = 0.008 | c1 = 0.01
283 K | 0.0053 ± 0.0019 | 0.0101 ± 0.0018 | 0.0189 ± 0.0018 | 0.0281 ± 0.0018 | 0.0366 ± 0.0019 | 0.0468 ± 0.002
293 K | 0.0064 ± 0.0024 | 0.0124 ± 0.0022 | 0.0233 ± 0.0022 | 0.0344 ± 0.0021 | 0.0447 ± 0.0023 | 0.0574 ± 0.0027
303 K | 0.0078 ± 0.0029 | 0.0151 ± 0.0028 | 0.0288 ± 0.0027 | 0.0423 ± 0.0026 | 0.0545 ± 0.0028 | 0.07 ± 0.0034
313 K | 0.00967 ± 0.0039 | 0.0195 ± 0.0034 | 0.0353 ± 0.0032 | 0.0516 ± 0.0031 | 0.0661 ± 0.0035 | 0.0866 ± 0.0041
